# Assay results: patent US20110262954A1, “SHUTTLE VECTOR BASED TRANSFORMATION SYSTEM FOR PYROCOCCUS FURIOSUS” (UNIVERSITAT REGENSBURG, priority 2010, published 2011)
# Assay: stability of simvastatin at incubation temperature (inferred from growth inhibition)
# Settings: 95° C. compared with 85° C.
compound,measurement,value
CCC(C)(C)C(=O)O[C@H]1C[C@@H](C)C=C2C=C[C@H](C)[C@H](CC[C@@H]3C[C@@H](O)CC(=O)O3)[C@H]21 [simvastatin],stability of simvastatin,dramatically decreased
